Test results as given in PubChem BioAssay AID1259371 (The Scripps Research Institute Molecular Screening Center, 2018).
Activity calls are given as the source filed them. How the calls were made is not given here.

Biological target: Microphthalmia-associated transcription factor (Homo sapiens) (UniProt O75030)
Experiment: compounds blocking human MITF signal – biochemical, AlphaScreen, dose response (AID 1259371)
Conditions: AlphaScreen biochemical MITF assay, signal inhibition

Chain of Microphthalmia-associated transcription factor (Homo sapiens) (O75030 whole entry, looked up): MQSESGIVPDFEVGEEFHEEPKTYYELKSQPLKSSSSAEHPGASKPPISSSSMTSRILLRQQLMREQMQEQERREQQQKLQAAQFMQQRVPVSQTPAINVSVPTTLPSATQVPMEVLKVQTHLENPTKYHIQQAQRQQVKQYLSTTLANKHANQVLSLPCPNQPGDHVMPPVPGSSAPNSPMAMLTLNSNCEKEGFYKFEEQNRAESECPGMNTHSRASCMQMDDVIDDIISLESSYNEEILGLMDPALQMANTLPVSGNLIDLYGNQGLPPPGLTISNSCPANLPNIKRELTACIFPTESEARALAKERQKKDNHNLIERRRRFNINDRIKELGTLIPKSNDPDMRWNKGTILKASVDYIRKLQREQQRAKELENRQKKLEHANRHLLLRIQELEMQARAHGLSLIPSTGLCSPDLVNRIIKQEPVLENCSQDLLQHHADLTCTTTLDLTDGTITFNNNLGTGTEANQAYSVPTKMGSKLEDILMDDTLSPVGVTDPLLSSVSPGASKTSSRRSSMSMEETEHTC

SMILES | IC50
O=C(O)COc1ccc(-n2cccc2)cc1 | 324 nM
O=[N+]([O-])c1ccc(N/N=C/c2ccco2)c(S(=O)(=O)N2CCOCC2)c1 | inactive
COc1ccc2c(c1)CC(C(=O)Nc1ccc(-c3cn[nH]c3)cc1C(=O)N(C)OC)CO2 (configuration not stated) | inactive
O=C(c1ccc(=O)oc1)N1CCc2ccccc21 | inactive
CN1CCN(CCNC(=O)c2cccc(CN(C(=O)c3nc4ccc(-c5cn[nH]c5)cc4s3)C3CC3)c2)CC1 | 645 nM
COc1cc(CN2CCN(C3CCCC3)CC2)cc(OC)c1OC | > 6480 nM (inactive)
Cc1ccc(S(=O)(=O)C(CNC(=O)c2ccco2)c2cccs2)cc1 (configuration not stated) | inactive
CCc1ccc(CN2CCN(Cc3cc(OC)c(O)c(OC)c3)CC2)cc1 | > 5790 nM (inactive)
O=C(O)c1ccccc1-c1ccc(/C=C/[N+](=O)[O-])o1 | 460 nM
c1cc2c(cc1CNc1nc(Nc3ccc(N4CCOCC4)cc3)c3ncn(C4CCCCC4)c3n1)OCO2 | inactive
Cc1cccc(OCC(=O)N2CCN(Cc3cccc(Br)c3)CC2)c1 | > 6480 nM (inactive)
CN(C)c1ccc(NC(=O)CSc2ncccc2C(=O)O)cc1 | inactive
O=C(O)c1cccc(-n2cccc2/C=C2/NC(=O)N(c3ccc(Cl)cc3)C2=O)c1 | 42.2 nM
CN1CC(=O)N2CCN(C(=O)NC3CCCCC3)C[C@@H]2C1=O | inactive
COc1ccc2c3c(cccc13)C(=O)N(C)C2=O | inactive
Cc1ccc(-c2ncn(-c3ccc(Nc4cc(-n5cnc(Nc6ccccc6)n5)c(F)cn4)cc3)n2)cn1 | inactive
CC(C)N(C(=O)COC(=O)c1cc(-c2ccco2)nc2ccccc12)C(C)C | inactive
CC(C)C[C@@H]1NC(=O)[C@H]2CN(C(=O)NC3CCCCC3)CCN2C1=O | 985 nM
O=C(/C=C/c1ccco1)NCc1cccc(CNC(=O)/C=C/c2ccco2)c1 | 115 nM
O=C(c1ccncc1)N1C2C=CC(C2)C1(C(F)(F)F)C(F)(F)F (configuration not stated) | inactive
CCC[C@@H]1NC(=O)[C@H]2CN(C(=O)NCc3ccccc3)CCN2C1=O | 826 nM
N#C/C(=C\c1ccc(-c2ccccc2C(=O)O)o1)C(=O)NCc1ccco1 | 326 nM
CCOC1=CC(c2ccc3c(c2)OCO3)CC(=O)c2c(C)oc(C)c21 (configuration not stated) | > 6480 nM (inactive)
CC1=C(C#N)C(c2cc3c(cc2[N+](=O)[O-])OCO3)C2=C(CCCC2=O)N1 (configuration not stated) | inactive
CC(C)[C@@H]1NC(=O)[C@H]2CN(C(=O)NCc3ccccc3)CCN2C1=O | 819 nM
O=C(OC1CCOC1=O)c1cc(-c2ccco2)nc2ccccc12 (configuration not stated) | 338 nM

SMILES | IC50
COc1ccc(S(=O)(=O)CCC(=O)Nc2nc3ccc(OC)cc3s2)cc1 | > 4550 nM (inactive)
COC(=O)CSc1nnc(-c2ccco2)n1Cc1ccco1 | 99.3 nM
CCOC(=O)C1C2NC(=S)N(c3ccccc3)C1(C)Oc1cc(OC)ccc12 (configuration not stated) | > 6400 nM (inactive)
O=C(O)c1ccc(CS(=O)(=O)c2ccccc2)o1 | 146 nM
CC1CCC(N2CCN(Cc3ccco3)CC2)CC1 (configuration not stated) | inactive
COCCCNC(=O)/C(C#N)=C/c1ccc(-c2ccc(C(=O)O)c(Cl)c2)o1 | inactive
COc1cccc(CN2CCC(CNc3ccc(-c4ccncc4)cc3)C2)c1 (configuration not stated) | 285 nM
O=C1N[C@H](Cc2ccccc2)C(=O)N2CCN(C(=O)NCc3ccccc3)C[C@H]12 | inactive
CN(C)[C@@H]1C(=O)C(C(=O)NCN2CCCC2)=C(O)[C@@]2(O)C(=O)C3=C(O)c4c(O)cccc4[C@@](C)(O)[C@H]3C[C@@H]12 | 425 nM
O=[N+]([O-])c1ccc(Br)c2c1no[n+]2[O-] | inactive
N#C/C(=C\c1nn(-c2ccccc2)c(N)c1C#N)c1ccco1 | 386 nM
O=C1N[C@@H](COCc2ccccc2)C(=O)N2CCN(C(=O)NC3CCCCC3)C[C@H]12 | inactive
CCOC(=O)C1C2NC(=S)N(c3cccc(Cl)c3)C1(C)Oc1c(OC)cccc12 (configuration not stated) | > 5090 nM (inactive)
Cc1cc(C)nc(NS(=O)(=O)c2ccc(N3C(=O)C=CC3=O)cc2)n1 | > 2160 nM (inactive)
Cc1cc(C)n2nc(N)c(N)c2n1 | > 11600 nM (inactive)
O=C1N[C@@H](Cc2ccc(O)cc2)C(=O)N2CCN(C(=O)NC3CCCCC3)C[C@H]12 | > 2160 nM (inactive)
O=C1N[C@@H](Cc2ccc(O)cc2)C(=O)N2CCN(C(=O)NCc3ccccc3)C[C@H]12 | > 2160 nM (inactive)
CCOc1cc(-c2ccc(I)o2)cc(=O)c2c(C)oc(C)c12 | 2.55 nM
Cc1cc(O)c2c(c1)Cc1cccc(O)c1C2=O | 474 nM
Cn1nnc(-c2ccc(Nc3nccc(-c4ccc5nc(C6CC6)[nH]c(=O)c5c4)n3)cc2)n1 | inactive
COc1cc(/C=N/N=C2\NC(=O)C(CC(=O)O)S2)ccc1OCc1ccc(C)cc1 (configuration not stated) | inactive
CC(=O)Oc1ccccc1N1C(=O)c2ccc(Oc3cccc(N)c3)cc2C1=O | 479 nM
COc1ccc2c(c1)CC(C(=O)Nc1ccc(-c3cn[nH]c3)cc1OCc1ccccc1)CO2 (configuration not stated) | inactive
O=C(O)CSc1cc(Cl)c2nonc2c1[N+](=O)[O-] | inactive
O=C(c1ccc2c(c1)C(=O)N(Cc1cccnc1)C2=O)c1ccc2c(c1)C(=O)N(Cc1cccnc1)C2=O | inactive
COC(=O)CN1C(=O)S/C(=C/c2ccc([N+](=O)[O-])o2)C1=O | inactive

SMILES | IC50
C/C(=N\NC(=O)Cc1cc(=O)[nH][nH]1)c1ccco1 | inactive
O=C(COc1ccccc1C(=O)OC1CCCC1=O)Nc1cccc(C(F)(F)F)c1 (configuration not stated) | inactive
COCCNC(=O)COC(=O)c1cc(-c2ccco2)nc2ccccc12 | inactive
Cc1nc(C)n(-c2ccc(Nc3cc(-n4cc(N(c5cccnc5)c5cccnc5)cn4)ccn3)cc2)n1 | 864 nM
CC(C)N(C)CCOC(=O)/C=C/c1ccco1 | inactive
COc1cc(OC)c(CN2CCCC(O)C2)cc1Br (configuration not stated) | > 6480 nM (inactive)
CNC(=O)Nc1ccc2nc(-c3ccco3)c(-c3ccco3)nc2c1 | 47.4 nM
c1ccc(-c2ccc(OCCCCn3cncn3)cc2)cc1 | inactive
O=C(COC(=O)c1cc(-c2ccco2)nc2ccccc12)NC1CC1 | inactive
O=C(Nc1ccc(N2CCOCC2)cc1)c1ccc2nc(-c3cccs3)sc2c1 | inactive
Cc1cc2c(c(=O)[nH]1)C(=O)O/C2=C\c1ccc(C)o1 | 333 nM
C=C1C(C(=O)NCc2ccco2)C1C(=O)NCc1ccco1 (configuration not stated) | 573 nM
O=C1N[C@H](Cc2ccc(O)cc2)C(=O)N2CCN(C(=O)NCc3ccccc3)C[C@H]12 | inactive
C[C@@H](OCc1ccccc1)[C@@H]1NC(=O)[C@H]2CN(C(=O)NC3CCCCC3)CCN2C1=O | inactive
O=C(OC1CCCC1=O)c1ccc(N2CCCC2=O)cc1 (configuration not stated) | inactive
COC(=O)CCc1cc2c(C)cc(=O)oc2cc1OCc1ccc(C)cc1 | > 6480 nM (inactive)
O=C(O)c1cc(S(=O)(=O)Nc2ccc(-n3cnnn3)cc2)ccc1O | inactive
Nc1cccc(N2C(=O)c3cc(S(=O)O)cc4c(N)c(S(=O)O)cc(c34)C2=O)c1 | inactive
CC1=NC(=S)C2C(=O)O/C(=C/c3ccc(-c4cccc([N+](=O)[O-])c4)o3)C2=C1 (configuration not stated) | inactive
C[C@H]1NC(=O)[C@H]2CN(C(=O)NCc3ccccc3)CCN2C1=O | inactive
O=C(Nc1ccc(N2CCOCC2)cc1)c1ccc2nc(Nc3ccccn3)sc2c1 | 537 nM
O=S(=O)(O)c1cc(S(=O)(=O)O)c2cc(O)c(S(=O)(=O)O)cc2c1 | 156 nM
O=C(NCCO)c1cccc(-c2cccs2)c1 | inactive
O=C(O)c1cccc(-n2cccc2/C=C\[N+](=O)[O-])c1 | 271 nM
NC(=O)c1ccc(-c2cccs2)s1 | > 7320 nM (inactive)
COc1cc(C=Nc2ccc(N(C)C)cc2)cc(I)c1O | > 6480 nM (inactive)

SMILES | IC50
CCOc1cccc(OCC)c2c(C)nc(C)c1-2 | 207 nM
COC(=O)CN(CCN(CC(=O)O)CC(=O)OC)CC(=O)O | inactive
O=C1N[C@@H](Cc2c[nH]c3ccccc23)C(=O)N2CCN(C(=O)NC3CCCCC3)C[C@H]12 | inactive
COc1ccc2c(c1)CC(C(=O)Nc1ccc(-c3cn[nH]c3)cc1OCC(N)=O)CO2 (configuration not stated) | inactive
O=C(O)c1ccc(-n2cccc2)cc1Cl | 626 nM
CN1C(=O)[C@H]2CN(C(=O)NCc3ccccc3)CCN2C(=O)[C@@H]1Cc1ccccc1 | inactive
O=C(OC1CCCC1=O)c1ccc(Cl)c(S(=O)(=O)N2CCOCC2)c1 (configuration not stated) | inactive
Cc1cc(/C=C2/C=CC(=O)O2)oc1C | 651 nM
O=C(/C=C/c1ccco1)ON1C(=O)c2ccccc2C1=O | > 6480 nM (inactive)
COc1cc(OC)c(OC)cc1CN1CCN(Cc2ccc(C)cc2)CC1 | > 5760 nM (inactive)
O=C(NC1CCCCC1)N1CCN2C(=O)[C@@H]3C[C@@H](O)CN3C(=O)[C@H]2C1 | inactive
C/C(=N\Nc1ccc(S(=O)(=O)O)cc1)c1cccc(Br)c1 | inactive
O=C(OC1CCCC1=O)c1ccc(S(=O)(=O)N2CCCCC2)cc1 (configuration not stated) | inactive
O=C(NCCN1CCOCC1)c1cccc(CN(C(=O)c2nc3ccc(-c4cn[nH]c4)cc3s2)C2CC2)c1 | inactive
O=C(COC(=O)/C=C/c1ccco1)NCc1ccco1 | 393 nM
O=C(/C=C/c1ccc(-c2cccc(C(F)(F)F)c2)o1)c1ccco1 | 160 nM
CC(=C/C(=O)O)/C=C/c1ccoc1 | 159 nM
COc1cc(N2CCOCC2)ccc1Nc1cc(Nc2ccccc2-n2cccn2)c(C(F)(F)F)cn1 | inactive
O=C(/C=C/c1ccco1)Nc1c[nH]c(=O)[nH]c1=O | inactive
O=C(CCCCC1SCC2NC(=O)NC21)NC1(c2ccc3c(c2)OCO3)CCCC1 (configuration not stated) | inactive
O=C(O)c1cc(C(=O)O)cc(-c2ccc(/C=N\n3cnnc3)o2)c1 | inactive
CCN(CC)c1ccc(C(c2c(C)[nH][nH]c2=O)c2c(C)[nH][nH]c2=O)cc1 | 286 nM
O=C(/C=C/c1ccco1)NCCCCCCNC(=O)/C=C/c1ccco1 | inactive
O=C1N[C@@H](Cc2ccccc2)C(=O)N2CCN(C(=O)NC3CCCCC3)C[C@H]12 | inactive
